We go through eleven compounds from ChEMBL document CHEMBL1201862, “PubChem BioAssay data set” (2004).

SMILES strings stand for the structures.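 Dose response: 5 concentrations. Exposure: 48 h. Format: 96-well plates. Endpoint: linear interpolation; highest concentration if not reached. Here, GI50 denotes the concentration required for 50% inhibition of growth.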 The source made the active and inactive calls. Rule as the data show it: active = GI50 up to about 1.1 µM and inactive = higher.

Among the test systems are A549; CAKI-1; EKVX; HCC 2998; HCT-15; HOP-62; KM12; MDA-MB-435; MDA-N; Malme-3M; NCI-H226; SF-295; SK-MEL-28; SK-MEL-5; SK-OV-3; SN12C; SNB-19; U-251; SNB-75.
What all share (test): NCI tumour cell line growth inhibition, 48 h

As to `Nc1ccc(Oc2ccc(C34CC5CC(C3)CC(c3ccc(Oc6ccc(N)c(O)c6)cc3)(C5)C4)cc2)cc1O`, the GI50 with A549 was 1.64 µM (inactive); in the experiment with CAKI-1 it was 1.93 µM (inactive); in the experiment on EKVX it was 1.72 µM (inactive); with HCC 2998, 1.47 µM (inactive); with HCT-15, 1.77 µM; in the experiment with HOP-62, 3.47 µM (inactive). The GI50 in the experiment with KM12 is 1.93 µM (inactive); with MDA-MB-435, 1.89 µM (inactive); in the experiment on MDA-N, 1.95 µM (inactive); with Malme-3M, 1.85 µM (inactive); in the experiment on NCI-H226 it was 3.1 µM (inactive); in the experiment with SF-295, 2.31 µM (inactive). Also, the GI50 in the experiment with SK-MEL-28 was 2.48 µM (inactive); with SK-MEL-5, 1.61 µM (inactive); in the experiment with SK-OV-3, 3.1 µM (inactive); with SN12C, 2.45 µM (inactive); with SNB-19 it was 1.52 µM (inactive); with U-251, 1.36 µM (inactive).

With `CC(C)(C(=O)NN)c1ccccc1`, the GI50 in the experiment on A549 was > 100 µM (inactive); with CAKI-1, > 100 µM (inactive); in the experiment on EKVX, 34.6 µM (inactive); in the experiment with HCC 2998, > 100 µM (inactive); in the experiment on HCT-15, more than 100 µM; in the experiment with HOP-62, > 100 µM (inactive). The GI50 is 42.3 µM (inactive) in the experiment with KM12; 86.5 µM (inactive) in the experiment on MDA-MB-435; 42.4 µM (inactive) with MDA-N; > 100 µM (inactive) in the experiment on Malme-3M; 33.7 µM (inactive) with SF-295; > 100 µM (inactive) with SK-MEL-28. Moreover, the GI50 in the experiment on SK-MEL-5, in the experiment on SK-OV-3, in the experiment with SN12C, with SNB-19, with SNB-75 and in the experiment with U-251 was > 100 µM (inactive) throughout.

As for `COC(=O)c1c(C)nc(C)c(N=O)c1-c1ccccc1C(F)(F)F`, the GI50 in the experiment with A549 is > 100 µM (inactive); with CAKI-1 it was 11 µM (inactive); in the experiment with EKVX, 99.8 µM (inactive); in the experiment on HCC 2998, 79.6 µM (inactive); in the experiment with HCT-15, 20.3 µM; in the experiment with HOP-62 it was > 100 µM (inactive). Also, the GI50 is 19.1 µM (inactive) in the experiment on KM12; 22.3 µM (inactive) in the experiment with MDA-MB-435; 19.7 µM (inactive) with MDA-N; 15.8 µM (inactive) in the experiment on Malme-3M; 19.4 µM (inactive) in the experiment on NCI-H226; > 100 µM (inactive) in the experiment on SF-295. The GI50 was 14.9 µM (inactive) with SK-MEL-28; 26.5 µM (inactive) in the experiment on SK-MEL-5; > 100 µM (inactive) in the experiment on SK-OV-3; 21.3 µM (inactive) in the experiment with SN12C; > 100 µM (inactive) in the experiment with SNB-19; 17.5 µM (inactive) with U-251.

On to `Nc1ncnc2c1cnn2Cc1cn(COCC(O)CO)nn1` (stereo not drawn), for which the GI50 in the experiment on A549 is > 100 µM (inactive); with CAKI-1, > 100 µM (inactive); in the experiment on EKVX, > 100 µM (inactive); with HCC 2998, > 100 µM (inactive); with HCT-15, more than 100 µM; in the experiment with HOP-62, > 100 µM (inactive). The GI50 in the experiment on KM12, in the experiment on MDA-MB-435, in the experiment on MDA-N, with SF-295, in the experiment with SK-MEL-28 and in the experiment with SK-MEL-5 was > 100 µM (inactive) each time. The GI50 with SK-OV-3, in the experiment on SN12C, in the experiment with SNB-19 and in the experiment on U-251 was > 100 µM (inactive) throughout.

As for `Clc1ccc2c(NC3CCC(N4CCCCC4)CC3)ccnc2c1` (stereo not drawn), the GI50 in the experiment with A549 is 31.8 µM (inactive); in the experiment with CAKI-1, 22.2 µM (inactive); in the experiment on EKVX it was 21.2 µM (inactive); in the experiment on HCC 2998, 12.2 µM (inactive); in the experiment with HCT-15, 27.4 µM; in the experiment on HOP-62, 29.9 µM (inactive). The GI50 in the experiment with KM12 is 20.1 µM (inactive); in the experiment with MDA-MB-435, 14.1 µM (inactive); in the experiment on MDA-N, 16.7 µM (inactive); with Malme-3M, 20.2 µM (inactive); in the experiment with NCI-H226, 25.1 µM (inactive); in the experiment on SF-295, 19.1 µM (inactive). Besides, the GI50 in the experiment with SK-MEL-28 was 18.6 µM (inactive); with SK-MEL-5 it was 15.2 µM (inactive); with SK-OV-3, 57.9 µM (inactive); in the experiment with SN12C it was 34.5 µM (inactive); with SNB-19, 32.7 µM (inactive); in the experiment on U-251, 21 µM (inactive).

In the case of `COc1ccc2c(c1)OCC1Cc3cc4c(cc3OC21)OCO4` (stereo not drawn), the GI50 in the experiment with A549 is 38.8 µM (inactive); in the experiment with CAKI-1, 47 µM (inactive); in the experiment with EKVX, 41.1 µM (inactive); in the experiment with HCC 2998 it was 44.6 µM (inactive); in the experiment on HCT-15, 30.4 µM; in the experiment on HOP-62, 41.2 µM (inactive). Further, the GI50 in the experiment with KM12 is 31.8 µM (inactive); in the experiment with MDA-MB-435, 7.73 µM (inactive); with MDA-N it was 3.14 µM (inactive); in the experiment on Malme-3M, 54.1 µM (inactive); with NCI-H226, > 100 µM (inactive); in the experiment with SF-295, 48.5 µM (inactive). The GI50 in the experiment with SK-MEL-5 was 16.8 µM (inactive); in the experiment with SK-OV-3 it was 37.2 µM (inactive); in the experiment on SN12C, 28.4 µM (inactive); in the experiment on SNB-19, > 100 µM (inactive); in the experiment on U-251, 42.6 µM (inactive).

Turning to `c1ccc(-n2nc3ccc4nonc4c3n2)cc1`, the GI50 in the experiment on A549 is > 100 µM (inactive); with CAKI-1, > 100 µM (inactive); with EKVX it was 44.6 µM (inactive); with HCC 2998 it was > 100 µM (inactive); in the experiment with HCT-15 it was more than 100 µM; in the experiment on HOP-62, > 100 µM (inactive). Also, the GI50 in the experiment on KM12, in the experiment with MDA-MB-435, in the experiment on MDA-N, in the experiment with Malme-3M, with SF-295 and in the experiment on SK-MEL-28 was > 100 µM (inactive) throughout. The GI50 is > 100 µM (inactive) with SK-MEL-5; > 100 µM (inactive) with SK-OV-3; > 100 µM (inactive) in the experiment with SN12C; 45.9 µM (inactive) in the experiment with SNB-19; 49.1 µM (inactive) with SNB-75; > 100 µM (inactive) in the experiment on U-251.

For the compound `CN1CCN(c2nc3ccccc3nc2C(=O)c2ccc(Cl)cc2)CC1`, the GI50 in the experiment with A549 was 54.2 µM (inactive); in the experiment on CAKI-1 it was 40.4 µM (inactive); with EKVX, 86.3 µM (inactive); with HCC 2998, 33.7 µM (inactive); in the experiment on HCT-15, 55.6 µM; with HOP-62, 59.4 µM (inactive). For the same compound, the GI50 in the experiment with KM12 is 35.1 µM (inactive); in the experiment with MDA-MB-435, 44.5 µM (inactive); with MDA-N, 36.9 µM (inactive); with Malme-3M, 16.7 µM (inactive); in the experiment on SF-295 it was 36.3 µM (inactive); in the experiment with SK-MEL-28 it was 50.7 µM (inactive). The GI50 in the experiment with SK-MEL-5 was 14.5 µM (inactive); with SK-OV-3, > 100 µM (inactive); with SNB-19 it was > 100 µM (inactive); in the experiment on SNB-75, > 100 µM (inactive); in the experiment on U-251, 57.1 µM (inactive).

Consider `Cc1cc(-c2c(Br)cc(C(=O)O)n2C)on1`, for which the GI50 in the experiment on A549 is > 100 µM (inactive); in the experiment on CAKI-1 it was > 100 µM (inactive); in the experiment on EKVX, > 100 µM (inactive); in the experiment with HCT-15, more than 100 µM; with HOP-62, > 100 µM (inactive); with KM12 it was > 100 µM (inactive). Further, the GI50 in the experiment on MDA-MB-435, in the experiment with MDA-N, with Malme-3M, in the experiment on NCI-H226, with SF-295 and in the experiment with SK-MEL-28 was > 100 µM (inactive) throughout. Further, the GI50 with SK-MEL-5, in the experiment with SK-OV-3, in the experiment on SN12C, in the experiment with SNB-19, in the experiment with SNB-75 and in the experiment on U-251 was > 100 µM (inactive) throughout.

As to `Cc1cc(OCc2nnc3n2N=C(c2cc(F)c(Cl)cc2Cl)/C(=C/c2ccc(-c4ccc(Cl)cc4)o2)S3)ccc1Cl`, the GI50 in the experiment with A549 was > 50 µM (inactive); in the experiment on CAKI-1 it was 39.5 µM (inactive); with EKVX, 16.3 µM (inactive); in the experiment on HCC 2998, 19 µM (inactive); in the experiment with HCT-15, 34 µM; in the experiment on HOP-62, > 50 µM (inactive). The GI50 with KM12 was 41.5 µM (inactive); with MDA-MB-435 it was 19.3 µM (inactive); in the experiment on MDA-N, 21.5 µM (inactive); in the experiment with Malme-3M, 3.9 µM (inactive); in the experiment on NCI-H226, 36.3 µM (inactive); in the experiment on SF-295 it was 36.6 µM (inactive). The GI50 in the experiment with SK-MEL-28 is 24.5 µM (inactive); in the experiment with SK-MEL-5, 46.5 µM (inactive); in the experiment on SN12C, 31.3 µM (inactive); in the experiment with SNB-19, > 50 µM (inactive); in the experiment on U-251, > 50 µM (inactive).

In the case of `Cc1nc(O)nc2nc3ccc(Cl)cc3c(NCCNCCO)c12`, the GI50 in the experiment on A549 was 17.4 µM (inactive); with CAKI-1, 12.2 µM (inactive); with EKVX, 11.4 µM (inactive); in the experiment on HCC 2998 it was 13.6 µM (inactive); in the experiment on HCT-15 it was 17.9 µM; with HOP-62, 8.05 µM (inactive). For the same compound, the GI50 with KM12 is 10.8 µM (inactive); with MDA-MB-435, 13 µM (inactive); with MDA-N, 12.8 µM (inactive); with Malme-3M, 15.2 µM (inactive); in the experiment with NCI-H226, 13.1 µM (inactive); in the experiment on SF-295 it was 16.3 µM (inactive). The GI50 is 17.5 µM (inactive) in the experiment with SK-MEL-28; 12.3 µM (inactive) in the experiment with SK-MEL-5; 11.4 µM (inactive) in the experiment on SK-OV-3; 7.18 µM (inactive) in the experiment with SN12C; 9.06 µM (inactive) in the experiment with SNB-19; 8.73 µM (inactive) in the experiment with U-251.
